Values joined by “and” are separate entries in the source; they are usually repeats but may differ in a detail not shown here. Identical values can stand only once. “Also recorded” adds a separate entry of the source. Like-named read-outs stand apart in the source and are kept apart here.
Legend:
S. Typhimurium [1] = test: Biofilm formation (crystal violet staining); type: cell-based; conditions: for OD590: 1 μM, Fig. 4c; for Biofilm formation (in words): strain SL1344, individual components of bile salts
Description: Biofilm formation was measured by crystal violet staining. In brief, overnight cultures of S. Typhimurium strains were diluted with fresh LB medium to an OD600 of 0.05, and 200 μl aliquots of the diluted cells were inoculated into each well of a sterile flat-bottomed 96-well polystyrene microtiter plate. After incubation at 37 °C for 24 h without shaking, culture supernatants were removed, and the wells were washed twice with sterilized water. Cells adhering to the wells were then stained with 0.1% (w/v) crystal violet for 15 min, followed by two washes using distilled water to remove unbound dye. […] For swimming motility assay, overnight cultures of S. Typhimurium strains were diluted to an OD600 of 0.5, and 2 μl aliquots of the diluted cells were spotted onto 0.3% tryptone agar (1% tryptone, 0.5% NaCl, and 0.3% Bacto agar [Difco]). Motility halos were measured after the plates were incubated at 37 °C for 12 h.

SicA = target: T1, SicA (Salmonella typhimurium, UniProt P69066); test: ITC: nucleotide (c-di-GMP, c-di-AMP, cGMP) binding to SicA; set-up: species or system S. Typhimurium; conditions: same experimental conditions as c-di-GMP
T1 construct: His6 (N, cleaved yes); made in house; host or cells: E. coli BL21(DE3), pET-28a (pET28a-sicA)
T1 sequence (P69066 whole entry): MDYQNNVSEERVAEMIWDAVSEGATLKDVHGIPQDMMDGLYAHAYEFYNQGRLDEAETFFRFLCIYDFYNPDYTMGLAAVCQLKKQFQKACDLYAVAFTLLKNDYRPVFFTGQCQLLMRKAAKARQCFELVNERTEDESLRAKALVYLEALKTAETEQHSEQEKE

WP_010904779-LBD = target: T2, WP_010904779-LBD (Escherichia coli O157:H7, UniProt Q8XB92); test: biochemical; type: binding, EHEC O157:H7; conditions: for Binding affinity (in words) / Kd: ITC; for Binding affinity (in words): LBD of the YedQ homolog from EHEC O157:H7
T2 construct: His6 (N, cleaved yes); made in house; host or cells: E. coli BL21(DE3) or its luxS deletion derivative
T2 sequence (Q8XB92 43-357 limits assumed): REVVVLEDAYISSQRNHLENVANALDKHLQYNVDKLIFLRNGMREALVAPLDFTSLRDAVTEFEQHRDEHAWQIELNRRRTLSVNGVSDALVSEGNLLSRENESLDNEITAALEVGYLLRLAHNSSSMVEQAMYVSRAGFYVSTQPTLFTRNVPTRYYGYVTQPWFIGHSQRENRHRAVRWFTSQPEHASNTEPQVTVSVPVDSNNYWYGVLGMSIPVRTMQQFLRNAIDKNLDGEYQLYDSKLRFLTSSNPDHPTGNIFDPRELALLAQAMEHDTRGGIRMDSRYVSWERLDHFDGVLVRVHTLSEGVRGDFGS
Description: (§1) ITC measurements were carried out at 20 °C with a Nano ITC Standard Volume isothermal calorimeter (TA Instruments, New Castle, DE) controlled by the ITCRun software. The N-terminal His6 tags of all purified proteins were removed before ITC analysis. For titrations with DPD/AI-2 (Omm Scientific), the tag-free proteins were dialyzed against a Tris buffer (25 mM Tris-HCl, 150 mM NaCl, pH 7.5) and diluted to 70 μM, while DPD/AI-2 was diluted with the same buffer to 700 μM. […] After being degassed, 1 ml of the protein and 250 μl of the ligand solution were added to the sample cell and the syringe, respectively. There were 25 injections per experiment and the stirring speed was 200 rpm. In control experiments, the ligand solution was titrated into the buffer in the sample cell to obtain the heat of dilution. Microcalorimetric data were corrected by subtracting the heats of dilution and fit to the independent binding site model using the NanoAnalyze software.
The binding affinity was evaluated by ITC analysis. ITC data and plots of injected heat for automatic
WP_010904779-LBD are shown in the upper and lower plots, respectively. The binding curves were
corrected for the dilution effects in the finalanalysis.
Kd and binding stoichiometry (n) are presented as mean ± s.d. of three

YedQ-LBD L288A = YedQ-LBD L288A (Salmonella typhimurium, UniProt Q8ZNT5, L288A); test: biochemical
Sequence of YedQ-LBD L288A (Q8ZNT5 43-357 L288A): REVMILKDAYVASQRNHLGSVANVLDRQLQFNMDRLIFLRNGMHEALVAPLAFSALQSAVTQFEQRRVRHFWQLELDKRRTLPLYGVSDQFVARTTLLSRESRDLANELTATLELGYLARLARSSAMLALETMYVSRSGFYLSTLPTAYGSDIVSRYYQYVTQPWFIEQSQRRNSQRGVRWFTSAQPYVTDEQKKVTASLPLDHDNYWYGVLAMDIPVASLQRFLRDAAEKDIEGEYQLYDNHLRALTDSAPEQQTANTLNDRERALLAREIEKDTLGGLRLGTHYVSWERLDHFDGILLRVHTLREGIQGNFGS
Description: as §1
(§2) The binding affinitywas evaluated using ITC analysis. ITC data and plots of injected heat for injections
(§3) binding curves were corrected for the dilution effects in the final analysis.
(§4) The Kd and binding stoichiometry
(§5) (n)values were presented as mean ± s.d. of three independent experiments. Source data are provided

YedQ-LBD Q264A = YedQ-LBD Q264A (Salmonella typhimurium, UniProt Q8ZNT5, Q264A); test: biochemical
Sequence of YedQ-LBD Q264A (Q8ZNT5 43-357 Q264A): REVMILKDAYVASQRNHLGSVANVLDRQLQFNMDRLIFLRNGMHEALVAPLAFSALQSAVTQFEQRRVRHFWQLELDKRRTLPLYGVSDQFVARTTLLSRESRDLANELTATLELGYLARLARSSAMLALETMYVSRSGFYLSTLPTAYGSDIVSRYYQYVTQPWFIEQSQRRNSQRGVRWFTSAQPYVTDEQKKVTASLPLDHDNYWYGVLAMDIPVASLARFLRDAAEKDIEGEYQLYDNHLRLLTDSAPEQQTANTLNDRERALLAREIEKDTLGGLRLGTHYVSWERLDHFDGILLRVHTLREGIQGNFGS
Description: as §1, §2, §3, §4, §5

YedQ-LBD D233A = YedQ-LBD D233A (Salmonella typhimurium, UniProt Q8ZNT5, D233A); test: biochemical
Sequence of YedQ-LBD D233A (Q8ZNT5 43-357 D233A): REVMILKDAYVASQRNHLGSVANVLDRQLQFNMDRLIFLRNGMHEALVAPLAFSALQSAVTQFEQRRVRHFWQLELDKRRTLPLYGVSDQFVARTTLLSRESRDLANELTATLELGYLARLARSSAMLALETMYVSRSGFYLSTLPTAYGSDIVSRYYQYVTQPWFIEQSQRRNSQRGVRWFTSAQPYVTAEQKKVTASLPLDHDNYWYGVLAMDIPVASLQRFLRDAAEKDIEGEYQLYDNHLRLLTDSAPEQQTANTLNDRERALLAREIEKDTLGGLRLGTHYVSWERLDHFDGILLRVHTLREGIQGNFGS
Description: as §1, §2, §3, §4, §5

YedQ-LBD K236A = YedQ-LBD K236A (Salmonella typhimurium, UniProt Q8ZNT5, K236A); test: biochemical
Sequence of YedQ-LBD K236A (Q8ZNT5 43-357 K236A): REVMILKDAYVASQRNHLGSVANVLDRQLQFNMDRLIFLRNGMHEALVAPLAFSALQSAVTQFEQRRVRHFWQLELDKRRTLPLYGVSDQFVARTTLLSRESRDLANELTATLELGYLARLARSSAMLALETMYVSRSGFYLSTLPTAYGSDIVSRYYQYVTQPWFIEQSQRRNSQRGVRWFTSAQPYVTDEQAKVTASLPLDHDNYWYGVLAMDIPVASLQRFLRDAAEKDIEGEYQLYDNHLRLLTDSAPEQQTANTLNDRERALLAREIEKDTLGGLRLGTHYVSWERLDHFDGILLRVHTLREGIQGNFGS
Description: as §1, §2, §3, §4, §5

YedQ-LBD L289A = YedQ-LBD L289A (Salmonella typhimurium, UniProt Q8ZNT5, L289A); test: biochemical
Sequence of YedQ-LBD L289A (Q8ZNT5 43-357 L289A): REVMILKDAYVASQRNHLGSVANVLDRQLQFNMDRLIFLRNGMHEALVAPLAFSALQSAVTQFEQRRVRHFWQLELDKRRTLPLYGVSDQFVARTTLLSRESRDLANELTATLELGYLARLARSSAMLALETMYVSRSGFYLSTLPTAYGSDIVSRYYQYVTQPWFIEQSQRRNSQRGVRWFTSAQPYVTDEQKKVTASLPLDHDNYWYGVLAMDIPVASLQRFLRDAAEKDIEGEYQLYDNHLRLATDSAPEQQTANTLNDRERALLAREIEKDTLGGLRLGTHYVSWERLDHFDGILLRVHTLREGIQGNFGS
Description: as §1, §2, §3, §4, §5

S. Typhimurium [2] = test: Cellular c-di-GMP quantification by LC-MS/MS; type: cell-based; conditions: 1 μM; for c-di-GMP (fmol/107 cells): strain WT(Vector), Fig. 4e; for Change of intracellular c-di-GMP levels (in words): wild-type strain; for Induction of intracellular c-di-GMP levels (in words): ΔyedQ mutant
Description: For stimulation with AI-2, the DPD/AI-2 solution was added to the shaking culture at OD600 of 1.3, followed by another 30 min of incubation at 37 °C. For induction by porcine bile salts and individual bile components (Sigma-Aldrich), substances were added to the static culture at OD600 of 1.1, followed by another 30 min of incubation at 37 °C. About 15 ml of culture was centrifuged and the cells were washed twice with phosphate-buffered saline (PBS, pH 7.0). The cell pellets were resuspended in 500 μl of extraction solution (acetonitrile/methanol/water, 40:40:20, v/v/v) and cooled on ice for 15 min. The samples were boiled for 10 min at 95 °C and then cooled again on ice for 15 min. After centrifugation at 20,000×g and 4 °C for 10 min, supernatants were transferred to new tubes on ice. The remaining pellets were used for two more extraction steps with 500 μl of the extraction solution without heating. Pooled supernatants for each sample were lyophilized, and pellets were resolubilized in 200 μl of distilled water. C-di-GMP concentrations were then measured by LC-MS/MS[63] (AB SCIEX QTRAP 6500+ LC-MS/MS System). Intracellular levels of c-di-GMP were normalized to the number of bacterial cells for each sample.

YedQ-LBD = target: T3, YedQ-LBD (Salmonella typhimurium, UniProt Q8ZNT5); test: biochemical; type: binding, S. Typhimurium
T3 construct: the periplasmic LBD (residues 43–357) of YedQ is structurally not well defined; His6 (N, cleaved yes); made in house; host or cells: E. coli BL21(DE3) or its luxS deletion derivative, pET-28a
T3 sequence (Q8ZNT5 43-357): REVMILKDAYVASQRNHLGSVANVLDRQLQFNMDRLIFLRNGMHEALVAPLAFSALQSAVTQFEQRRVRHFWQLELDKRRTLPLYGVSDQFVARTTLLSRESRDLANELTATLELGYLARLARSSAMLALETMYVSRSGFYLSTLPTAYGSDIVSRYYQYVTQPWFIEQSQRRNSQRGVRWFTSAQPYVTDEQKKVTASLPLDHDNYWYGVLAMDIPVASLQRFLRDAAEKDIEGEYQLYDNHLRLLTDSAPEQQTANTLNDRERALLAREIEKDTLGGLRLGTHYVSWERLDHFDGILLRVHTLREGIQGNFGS
Description: as §1

YedQ = system: T4, YedQ; test: In vitro DGC activity assay of YedQ (membrane fractions, HPLC of c-di-GMP); type: biochemical, S. Typhimurium; conditions: for Effect on DGC activity of YedQ in c-di-GMP synthesis (in words): in vitro, membrane fractions
T4 construct: Preparation of membrane fractions containing full-length YeaJ and YedQ; made in house; host or cells: ΔluxS mutant of E. coli BL21(DE3), membrane fractions

Row | SMILES | OD590 (S. Typhimurium [1]) | Binding to SicA (in words) (SicA) | Binding affinity (in words) (WP_010904779-LBD) | c-di-GMP (fmol/107 cells) (S. Typhimurium [2]) | Change of intracellular c-di-GMP levels (in words) (S. Typhimurium [2]) | Induction of intracellular c-di-GMP levels (in words) (S. Typhimurium [2]) | Biofilm formation (in words) (S. Typhimurium [1]) | Concentration of c-di-GMP (YedQ; 100 μM, 30 min) | Concentration of c-di-GMP (YedQ; 100 μM, 60 min) | Concentration of c-di-GMP (YedQ; 200 μM, 30 min) | Concentration of c-di-GMP (YedQ; 200 μM, 60 min) | Effect on DGC activity of YedQ in c-di-GMP synthesis (in words) (YedQ) | also measured
1 | C[C@H](CCC(=O)O)[C@H]1CC[C@H]2[C@@H]3[C@H](O)C[C@@H]4C[C@H](O)CC[C@]4(C)[C@H]3C[C@H](O)[C@]12C [Cholate] | 2.29 and 2.20 and 2.14 |  |  |  |  |  |  |  |  |  |  |  | 
2 | C[C@H](CCC(=O)NCC(=O)O)[C@H]1CC[C@H]2[C@@H]3[C@H](O)C[C@@H]4C[C@H](O)CC[C@]4(C)[C@H]3C[C@H](O)[C@]12C [Glycocholate] | 2.14 |  |  |  |  |  |  |  |  |  |  |  | 
3 | Nc1ncnc2c1ncn2[C@@H]1O[C@@H]2COP(=O)(O)O[C@H]3[C@@H](O)[C@H](n4cnc5c(N)ncnc54)O[C@@H]3COP(=O)(O)O[C@H]2[C@H]1O [c-di-AMP] |  | no binding |  |  |  |  |  |  |  |  |  |  | 
4 | Nc1nc2c(ncn2[C@@H]2O[C@@H]3COP(=O)(O)O[C@H]3[C@H]2O)c(=O)[nH]1 [cGMP] |  | no binding |  |  |  |  |  |  |  |  |  |  | 
5 | C[C@H](CCC(=O)NCCS(=O)(=O)O)[C@H]1CC[C@H]2[C@@H]3[C@H](O)C[C@@H]4C[C@H](O)CC[C@]4(C)[C@H]3C[C@H](O)[C@]12C [taurocholate] |  |  | high binding; also recorded: high affinity | 57.59 fmol/107 cells and 62.54 fmol/107 cells and 56.52 fmol/107 cells | significant increase | completely abolished | significantly stimulated biofilm formation | 22.83 µM and 22.66 µM and 23.00 µM | 34.84 µM and 35.29 µM and 36.56 µM | 39.61 µM and 38.40 µM and 39.33 µM | 45.78 µM and 46.73 µM and 45.87 µM | induce the DGC activity | n, Taurocholate binding to WP_010904779-LBD (WP_010904779-LBD; ITC binding stoichiometry n, individual replicates, Supplementary Figure 24a): 1.06 and 1.08 and 1.12; Kd (WP_010904779-LBD; Taurocholate binding to WP_010904779-LBD, individual replicates, Supplementary Figure 24a): 0.19 µM and 0.22 µM and 0.23 µM; n, Taurocholate binding to YedQ-LBDL288A (YedQ-LBD L288A; ITC binding stoichiometry n, individual replicates, Supplementary Figure 11d): 1.10 and 1.02 and 1.07; Kd (YedQ-LBD L288A; Kd (μM), binding to YedQ-LBD L288A): 18 µM and 21 µM and 24 µM; n, Taurocholate binding to YedQ-LBDQ264A (YedQ-LBD Q264A; ITC binding stoichiometry n, individual replicates, Supplementary Figure 11c): 1.07 and 1.18 and 1.00; Kd (YedQ-LBD Q264A; Kd (μM), binding to YedQ-LBD Q264A): 14 µM and 12 µM and 15 µM; Kd (YedQ-LBD D233A; Binding affinity Kd (μM), ITC, YedQ-LBD D233A, mean ± s.d.): 18 ± 1 µM; n, Taurocholate binding to YedQ-LBDD233A (YedQ-LBD D233A; ITC binding stoichiometry n, individual replicates, Supplementary Figure 11a): 1.11 and 1.16 and 1.13; Kd (YedQ-LBD D233A; Kd (μM), binding to YedQ-LBD D233A): 18 µM and 16 µM; Kd (YedQ-LBD D233A; Kd, Taurocholate binding to YedQ-LBDD233A, ITC, individual replicates, Supplementary Figure 11a): 18 µM; Kd (YedQ-LBD K236A; Binding affinity Kd (μM), ITC, YedQ-LBD K236A, mean ± s.d.): 27 ± 2 µM; n, Taurocholate binding to YedQ-LBDK236A (YedQ-LBD K236A; ITC binding stoichiometry n, individual replicates, Supplementary Figure 11b): 1.04 and 1.09 and 1.01; Kd (YedQ-LBD K236A; Kd (μM), binding to YedQ-LBD K236A): 24 µM and 26 µM and 30 µM; n, Taurocholate binding to YedQ-LBDL289A (YedQ-LBD L289A; ITC binding stoichiometry n, individual replicates, Supplementary Figure 11e): 1.18 and 1.14 and 1.16; Kd (YedQ-LBD L289A; Kd (μM), binding to YedQ-LBD L289A): 7.7 µM and 6.8 µM and 7.2 µM; Kd (YedQ-LBD; Kd (μM), binding to YedQ-LBD (WT)): 0.2 µM and 0.13 µM and 0.16 µM; Kd (YedQ-LBD; Kd, ITC, YedQ-LBD WT, mean ± s.d. of three independent experiments): 0.17 ± 0.03 µM
6 | C[C@H](CCC(=O)NCCS(=O)(=O)O)[C@H]1CC[C@H]2[C@@H]3CC[C@@H]4C[C@H](O)CC[C@]4(C)[C@H]3C[C@H](O)[C@]12C [taurodeoxycholate] |  |  | high binding; also recorded: high affinity | 78.56 fmol/107 cells and 82.79 fmol/107 cells and 79.80 fmol/107 cells | significant increase | completely abolished | significantly stimulated biofilm formation | 22.89 µM and 24.25 µM and 23.52 µM | 34.75 µM and 35.42 µM and 35.31 µM | 37.84 µM and 36.56 µM and 37.20 µM | 46.63 µM and 47.86 µM and 45.57 µM | induce the DGC activity | n, Taurodeoxycholate binding to WP_010904779-LBD (WP_010904779-LBD; ITC binding stoichiometry n, individual replicates, Supplementary Figure 24b): 1.13 and 1.09 and 1.12; Kd (WP_010904779-LBD; Taurodeoxycholate binding to WP_010904779-LBD, individual replicates, Supplementary Figure 24b): 0.13 µM and 0.17 µM and 0.19 µM; Kd (YedQ-LBD; ITC, YedQ-LBD WT, mean ± s.d. of three independent experiments, read-out: Kd): 0.14 ± 0.02 µM; Kd (YedQ-LBD; binding to YedQ-LBD (WT), read-out: Kd): 0.15 µM and 0.17 µM and 0.11 µM
